Measurements taken from US20130336899A1, “ANTIMICROBIAL FORMULATIONS THAT AID IN WOUND HEALING” (Purdue Research Foundation, priority 2010, published 2013).

Experiments:
Type in all cases: cell-based
bacteria [1] = experiment: Bactericidal log reduction after 10 and 60 min treatment; conditions: for Log Red - 10 min: 10 min treatment; for Log Red - 60 min: 60 min treatment
Protocol: Referring now to FIG. 4, the bactericidal effect of osmopermeation is fast acting and occurs in less than 10 minutes, as shown. Finally, osmopermeation is wide spectrum in nature and effective in treating both Gram (+) and Gram (−) bacterial strains.

bacteria [2] = experiment: Bactericidal action of hypertonic sucrose with or without membrane permeabilizing agent
bacteria [3] = experiment: Cell viability with vital stain (propidium iodide, PI); conditions: thymol 2.66 mM, sucrose 1.17 OsM; after 1 hr
Source text: FIG. 3A. Photomicrographs of cells that were: untreated; or treated with sucrose, or thymol or sucrose and thymol (S+T).

bacteria [4] = experiment: Measurement of 260/280 nm absorbing material (bacteriolysis, loss of intracellular proteins); conditions: sucrose 1.17 OsM, thymol 2.66 mM
MRSA = experiment: Dose response, MIC and combination index, 24 hrs of treatment; conditions: thymol emulsion
Source text: (§1) Responses represent 24 hrs of treatment. Six specific combinations (S+T) of sucrose and thymol are also plotted for each strain. The effect level (Fa) represents a value between 0 and 1.0 with 0 being no effect and 1.0 being all cells affected. (B) Normalized isobolograms defining the interaction between S and T. Numbered points correspond to the specific combinations enumerated in the table. Table denotes the minimum inhibitory concentrations (MICs) for each treatment as well as outcomes of the six S+T combinations. The nature of the two-treatment interaction is measured via the combination index (CI). The CI<1 is roughly defined as synergistic, ˜1 is additive and CI>1 is antagonistic. See Chou T C. “Theoretical basis, experimental design and computerized simulation of synergism and antagonism in drug combination studies”. Pharmacol. Rev. 2006; […]:621-81. Synergistic interactions were found in combinations with various hyperosmotic pressures and concentrations of the membrane permeabilizing agent.
(§2) Data collected with 4 strains of bacterial E. coli, E, faecalis, S. aureus and MRSA.

E. faecalis = experiment: as above; conditions: thymol emulsion
Source text: as §1, §2

S. aureus = experiment: as above; conditions: thymol emulsion
Source text: as §1, §2

E. coli = experiment: as above; conditions: thymol emulsion
Source text: as §1, §2

SMILES: OC[C@H]1O[C@@](CO)(O[C@H]2O[C@H](CO)[C@@H](O)[C@H](O)[C@H]2O)[C@@H](O)[C@@H]1O [Sucrose (S), sucrose]
- Log Red - 10 min (bacteria [1]): <0.5
- Log Red - 60 min (bacteria [1]): <0.2
- bactericidal effect (bacteria [2]): no bactericidal effect and actually permits cell proliferation
- effect on cell viability (PI vital stain) (bacteria [3]): little effect on cell viability

SMILES: Cc1ccc(C(C)C)c(O)c1 [Thymol (T), 2-isopropyl-5-methylphenol]
- Log Red - 10 min (bacteria [1]): ~6.4
- Log Red - 60 min (bacteria [1]): ~6.7
- bactericidal effect (bacteria [2]): no significant bactericidal effect
- 280 nm (A.U.) (bacteria [4]; absorbing material released): 1.02 A.U.
- absorbance at 260 nm (bacteria [4]; absorbing material released): .99 A.U.
- 260/280 nm (bacteria [4]; ratio of absorbances): 0.97
- MICT (MRSA): 1.65 mM
- MICT (E. faecalis): 2.60 mM
- MICT (S. aureus): 1.65 mM
- MICT (E. coli): 2.60 mM
- effect on cell viability (PI vital stain) (bacteria [3]): little effect on cell viability
